From EPA's CvTdb concentration-time database
Several values for one entry are separate records, joined by “and”; a condition that tells them apart may be missing. Equal values may be shown once.

Experiments:
[1] = tested on: rat; assay: concentration in blood after dosing; negative times count back from the end of exposure; conditions: dosed: tert-amyl methyl ether, inhalation, duration: 6 hr, male, F344 (Charles River)
[2] = tested on: Rat; assay: concentration in liver after dosing; conditions: dosed: Perfluorooctane Sulfonate, oral
[3] = tested on: Rat; assay: concentration in kidney after dosing; conditions: dosed: Perfluorooctane Sulfonate, oral
[4] = tested on: Rat; assay: concentration in plasma after dosing; conditions: dosed: Perfluorooctane Sulfonate, 2 mg/kg
[5] = tested on: Rat; assay: concentration in brain after dosing; conditions: dosed: Perfluorooctane Sulfonate, oral

CCC(C)(C)O [tertiary amyl alcohol]
[1]
Conditions | concentration in blood [ng/mL]
0.1349 h, 100 ppm | 3120
0.1606 h, 500 ppm | 18700
0.161 h, 100 ppm | 2610
0.1742 h, 500 ppm | 28700
0.1776 h, 100 ppm | 4090
0.1793 h, 100 ppm | 3740
0.2114 h, 500 ppm | 25900
0.3273 h, 2500 ppm | 96000
0.3463 h, 2500 ppm | 119000
0.3468 h, 100 ppm | 3320
0.3507 h, 100 ppm | 2500
0.3521 h, 500 ppm | 18700
0.3559 h, 2500 ppm | 101000
0.358 h, 500 ppm | 33000
0.3593 h, 500 ppm | 32300
0.3685 h, 100 ppm | 3740
0.369 h, 100 ppm | 3620
0.3717 h, 500 ppm | 25500
0.8785 h, 2500 ppm | 113000
0.8797 h, 2500 ppm | 110000
0.8894 h, 2500 ppm | 91700
0.8908 h, 2500 ppm | 89100
0.9009 h, 100 ppm | 1190
0.9009 h, 500 ppm | 15400
0.9138 h, 500 ppm | 25900
0.9151 h, 500 ppm | 25100
0.9198 h, 100 ppm | 2180
0.9217 h, 500 ppm | 21500
0.9218 h, 100 ppm | 1760
1.789 h, 2500 ppm | 96800
1.799 h, 2500 ppm | 76700
1.823 h, 100 ppm | 1290
1.824 h, 2500 ppm | 89300
2.017 h, 500 ppm | 16200
2.018 h, 500 ppm | 15400
2.026 h, 500 ppm | 11400
3.851 h, 500 ppm | 8400
3.852 h, 500 ppm | 7720
3.858 h, 500 ppm | 4810
3.985 h, 2500 ppm | 61200
3.989 h, 2500 ppm | 52300
3.99 h, 2500 ppm | 49700
3.991 h, 2500 ppm | 48600
9.831 h, 2500 ppm | 3190
9.837 h, 500 ppm | 123
17.91 h, 500 ppm | 185
36 s, 100 ppm | 4500

[1], during exposure
Conditions | concentration in blood
-112 s, 100 ppm | 3220 ng/mL
-97 s, 100 ppm | 2350 ng/mL
-51 s, 500 ppm | 27000 ng/mL
-36 s, 100 ppm | 3730 ng/mL
-27 s, 500 ppm | 23300 ng/mL
-5.969 h, 2500 ppm | 2030 ng/mL
-5.968 h, 2500 ppm | 298 ng/mL
-5.931 h, 100 ppm | 373 ng/mL
-5.788 h, 100 ppm | 269 ng/mL
-5.779 h, 500 ppm | 1540 ng/mL
-5.777 h, 500 ppm | 432 ng/mL
-5.722 h, 2500 ppm | 4830 ng/mL
-5.695 h, 100 ppm | 530 ng/mL
-5.662 h, 2500 ppm | 10000 ng/mL
-5.661 h, 2500 ppm | 6980 ng/mL
-5.626 h, 100 ppm | 895 ng/mL
-5.601 h, 100 ppm | 790 ng/mL
-5.589 h, 500 ppm | 2720 ng/mL
-5.079 h, 2500 ppm | 24900 ng/mL
-5.077 h, 2500 ppm | 21200 ng/mL
-5.075 h, 2500 ppm | 17100 ng/mL
-5.019 h, 500 ppm | 5250 ng/mL
-5.017 h, 500 ppm | 4200 ng/mL
-5.015 h, 100 ppm | 1710 ng/mL
-5.013 h, 100 ppm | 1350 ng/mL
-5.012 h, 100 ppm | 1200 ng/mL
-5.011 h, 100 ppm | 882 ng/mL
-4.072 h, 100 ppm | 2490 ng/mL
-4.07 h, 100 ppm | 2010 ng/mL
-4.069 h, 100 ppm | 1890 ng/mL and 1860 ng/mL
-3.994 h, 2500 ppm | 30900 ng/mL
-3.993 h, 2500 ppm | 29600 ng/mL
-3.992 h, 2500 ppm | 28500 ng/mL
-3.908 h, 500 ppm | 8890 ng/mL
-3.906 h, 500 ppm | 7410 ng/mL
-2.076 h, 500 ppm | 19600 ng/mL
-2.075 h, 500 ppm | 19000 ng/mL
-2.065 h, 100 ppm | 3210 ng/mL
-2.062 h, 100 ppm | 2590 ng/mL
-2.061 h, 100 ppm | 2340 ng/mL
-2.046 h, 100 ppm | 4250 ng/mL
-2.018 h, 2500 ppm | 59800 ng/mL
-2.017 h, 2500 ppm | 58900 ng/mL
-2 h, 2500 ppm | 84600 ng/mL
-1.996 h, 2500 ppm | 78100 ng/mL
-0.2032 h, 2500 ppm | 99500 ng/mL
-0.1979 h, 2500 ppm | 89100 ng/mL
-0.1701 h, 2500 ppm | 95600 ng/mL
-0.031 h, 500 ppm | 18700 ng/mL

O=S(=O)([O-])C(F)(F)C(F)(F)C(F)(F)C(F)(F)C(F)(F)C(F)(F)C(F)(F)C(F)(F)F [Perfluorooctane Sulfonate]
Conditions | concentration in brain [ng/g] | concentration in kidney [ng/g] | concentration in liver [ng/g] | concentration in plasma [ng/mL]
[2], 6 h, 2 mg/kg, Female, Harlan Sprague Dawley | – | – | 24800 | –
[2], 6 h, 20 mg/kg, Female, F344 | – | – | 118000 | –
[2], 6 h, 20 mg/kg, Male, Harlan Sprague Dawley | – | – | 135000 | –
[2], 24 h, 2 mg/kg, Female, Harlan Sprague Dawley | – | – | 24400 | –
[2], 24 h, 20 mg/kg, Female, F344 | – | – | 127000 | –
[2], 24 h, 20 mg/kg, Male, Harlan Sprague Dawley | – | – | 148000 | –
[2], 864 h, 2 mg/kg, Female, Harlan Sprague Dawley | – | – | 13200 | –
[2], 864 h, 20 mg/kg, Female, F344 | – | – | 72900 | –
[2], 864 h, 20 mg/kg, Male, Harlan Sprague Dawley | – | – | 93900 | –
[2], 1848 h, 2 mg/kg, Female, Harlan Sprague Dawley | – | – | 5150 | –
[2], 1848 h, 20 mg/kg, Female, F344 | – | – | 44900 | –
[2], 1848 h, 20 mg/kg, Male, Harlan Sprague Dawley | – | – | 51000 | –
[2], 3360 h, 2 mg/kg, Female, Harlan Sprague Dawley | – | – | 8200 | –
[2], 3360 h, 20 mg/kg, Male, Harlan Sprague Dawley | – | – | 22900 | –
[3], 6 h, 2 mg/kg, Female, Harlan Sprague Dawley | – | 4960 | – | –
[3], 6 h, 20 mg/kg, Female, F344 | – | 112000 | – | –
[3], 6 h, 20 mg/kg, Male, Harlan Sprague Dawley | – | 85500 | – | –
[3], 24 h, 2 mg/kg, Female, Harlan Sprague Dawley | – | 5860 | – | –
[3], 24 h, 20 mg/kg, Female, F344 | – | 131000 | – | –
[3], 24 h, 20 mg/kg, Male, Harlan Sprague Dawley | – | 66800 | – | –
[3], 864 h, 2 mg/kg, Female, Harlan Sprague Dawley | – | 1750 | – | –
[3], 864 h, 20 mg/kg, Female, F344 | – | 53400 | – | –
[3], 864 h, 20 mg/kg, Male, Harlan Sprague Dawley | – | 21500 | – | –
[3], 1848 h, 2 mg/kg, Female, Harlan Sprague Dawley | – | 923 | – | –
[3], 1848 h, 20 mg/kg, Female, F344 | – | 21400 | – | –
[3], 1848 h, 20 mg/kg, Male, Harlan Sprague Dawley | – | 10500 | – | –
[3], 3360 h, 2 mg/kg, Female, Harlan Sprague Dawley | – | 517 | – | –
[3], 3360 h, 20 mg/kg, Male, Harlan Sprague Dawley | – | 2460 | – | –
[4], 1 h, iv, Female, F344 | – | – | – | 4190
[4], 1 h, iv, Female, Harlan Sprague-Dawley | – | – | – | 4680
[4], 1 h, oral, Female, Harlan Sprague Dawley | – | – | – | 2210
[4], 5 min, iv, Female, F344 | – | – | – | 4540
[4], 5 min, iv, Female, Harlan Sprague-Dawley | – | – | – | 4940
[4], 5 min, oral, Female, Harlan Sprague Dawley | – | – | – | 45.8
[4], 6 h, iv, Female, F344 | – | – | – | 4360
[4], 6 h, iv, Male, F344 | – | – | – | 4280
[4], 6 h, oral, Female, Harlan Sprague Dawley | – | – | – | 3970
[4], 12 h, iv, Female, F344 | – | – | – | 4300
[4], 12 h, iv, Male, F344 | – | – | – | 3680
[4], 12 h, oral, Female, Harlan Sprague Dawley | – | – | – | 7550
[4], 24 h, iv, Female, F344 | – | – | – | 4320
[4], 24 h, iv, Female, Harlan Sprague-Dawley | – | – | – | 3660
[4], 24 h, iv, Male, F344 | – | – | – | 3470
[4], 24 h, oral, Female, Harlan Sprague Dawley | – | – | – | 4650
[4], 192 h, iv, Female, F344 | – | – | – | 4590
[4], 192 h, iv, Female, Harlan Sprague-Dawley | – | – | – | 2490
[4], 192 h, oral, Female, Harlan Sprague Dawley | – | – | – | 3130
[4], 528 h, iv, Female, F344 | – | – | – | 3280
[4], 528 h, iv, Female, Harlan Sprague-Dawley | – | – | – | 2170
[4], 528 h, iv, Male, F344 | – | – | – | 1770
[4], 528 h, oral, Female, Harlan Sprague Dawley | – | – | – | 2690
[4], 864 h, iv, Female, F344 | – | – | – | 1540
[4], 864 h, iv, Male, F344 | – | – | – | 1300
[4], 864 h, oral, Female, Harlan Sprague Dawley | – | – | – | 1610
[4], 1200 h, iv, Female, F344 | – | – | – | 2010
[4], 1200 h, iv, Female, Harlan Sprague-Dawley | – | – | – | 650
[4], 1200 h, iv, Male, F344 | – | – | – | 1650
[4], 1200 h, oral, Female, Harlan Sprague Dawley | – | – | – | 1100
[4], 1704 h, iv, Female, F344 | – | – | – | 1840
[4], 1704 h, iv, Female, Harlan Sprague-Dawley | – | – | – | 868
[4], 1704 h, iv, Male, F344 | – | – | – | 573
[4], 1848 h, oral, Female, Harlan Sprague Dawley | – | – | – | 780
[4], 2376 h, iv, Female, F344 | – | – | – | 750
[4], 2376 h, iv, Female, Harlan Sprague-Dawley | – | – | – | 698
[4], 2376 h, iv, Male, F344 | – | – | – | 395
[4], 2520 h, oral, Female, Harlan Sprague Dawley | – | – | – | 388
[4], 3216 h, iv, Female, F344 | – | – | – | 90.3
[4], 3360 h, oral, Female, Harlan Sprague Dawley | – | – | – | 237
[5], 6 h, 20 mg/kg, Female, F344 | 3650 | – | – | –
[5], 6 h, 20 mg/kg, Male, Harlan Sprague Dawley | 5430 | – | – | –
[5], 24 h, 2 mg/kg, Female, Harlan Sprague Dawley | 615 | – | – | –
[5], 24 h, 20 mg/kg, Female, F344 | 11500 | – | – | –
[5], 24 h, 20 mg/kg, Male, Harlan Sprague Dawley | 9570 | – | – | –
[5], 864 h, 20 mg/kg, Female, F344 | 3420 | – | – | –
[5], 864 h, 20 mg/kg, Male, Harlan Sprague Dawley | 2750 | – | – | –
[5], 1848 h, 20 mg/kg, Female, F344 | 1270 | – | – | –
[5], 1848 h, 20 mg/kg, Male, Harlan Sprague Dawley | 1560 | – | – | –
[5], 3360 h, 20 mg/kg, Male, Harlan Sprague Dawley | 672 | – | – | –
